According to ChEMBL document CHEMBL5291721, “A preclinical secondary pharmacology resource illuminates target-adverse drug reaction associations of marketed drugs” (Nat Commun, 2023):

Columns and labels:
[1] = molecular target: 3',5'-cyclic-AMP phosphodiesterase 4D (Homo sapiens, UniProt Q08499); type: functional
[2] = molecular target: T1, Alpha-2A adrenergic receptor (Homo sapiens, UniProt P08913); type: functional, cell-based
T1 sequence (P08913 whole entry): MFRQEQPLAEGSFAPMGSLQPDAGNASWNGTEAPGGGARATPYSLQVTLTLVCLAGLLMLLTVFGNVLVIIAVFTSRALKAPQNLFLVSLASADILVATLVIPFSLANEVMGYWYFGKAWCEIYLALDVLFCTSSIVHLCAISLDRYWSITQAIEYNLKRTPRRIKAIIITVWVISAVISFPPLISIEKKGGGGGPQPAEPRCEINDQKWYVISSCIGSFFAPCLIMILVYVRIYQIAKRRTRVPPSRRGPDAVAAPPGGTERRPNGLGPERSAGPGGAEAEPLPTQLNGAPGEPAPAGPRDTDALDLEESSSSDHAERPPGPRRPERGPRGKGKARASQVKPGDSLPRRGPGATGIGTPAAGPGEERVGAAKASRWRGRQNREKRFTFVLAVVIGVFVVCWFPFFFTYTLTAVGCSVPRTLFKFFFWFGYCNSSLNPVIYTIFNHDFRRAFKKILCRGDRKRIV

[3] = molecular target: T2, Alpha-2C adrenergic receptor (Homo sapiens, UniProt P18825); type: functional
T2 sequence (P18825 whole entry): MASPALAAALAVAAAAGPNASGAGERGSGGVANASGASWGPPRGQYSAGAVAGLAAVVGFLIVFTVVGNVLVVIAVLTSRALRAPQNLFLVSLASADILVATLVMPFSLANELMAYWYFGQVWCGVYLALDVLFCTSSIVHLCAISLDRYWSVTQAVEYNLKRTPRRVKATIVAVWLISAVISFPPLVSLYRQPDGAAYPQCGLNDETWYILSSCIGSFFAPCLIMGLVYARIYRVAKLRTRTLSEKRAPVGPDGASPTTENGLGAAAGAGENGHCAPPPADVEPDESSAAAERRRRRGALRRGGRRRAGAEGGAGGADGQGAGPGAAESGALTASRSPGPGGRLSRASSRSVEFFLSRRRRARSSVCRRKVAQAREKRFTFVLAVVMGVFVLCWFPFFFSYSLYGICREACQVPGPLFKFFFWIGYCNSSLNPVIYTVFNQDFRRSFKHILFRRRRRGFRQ

D(1A) dopamine receptor = D(1A) dopamine receptor (Homo sapiens, UniProt P21728); type: functional, cell-based
Sequence of D(1A) dopamine receptor (P21728 whole entry): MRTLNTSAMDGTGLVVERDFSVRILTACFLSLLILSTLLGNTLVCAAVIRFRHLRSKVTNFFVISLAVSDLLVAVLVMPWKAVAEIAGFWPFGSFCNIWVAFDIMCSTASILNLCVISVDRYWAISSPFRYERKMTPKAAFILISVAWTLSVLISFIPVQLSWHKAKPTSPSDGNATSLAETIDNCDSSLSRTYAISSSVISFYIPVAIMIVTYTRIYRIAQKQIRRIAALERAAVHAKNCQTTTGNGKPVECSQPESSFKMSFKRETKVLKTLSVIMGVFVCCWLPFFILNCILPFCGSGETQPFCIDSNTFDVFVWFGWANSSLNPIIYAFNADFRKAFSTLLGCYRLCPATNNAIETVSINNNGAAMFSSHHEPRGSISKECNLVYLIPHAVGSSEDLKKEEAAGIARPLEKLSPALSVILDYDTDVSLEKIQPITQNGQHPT

[4] = molecular target: T3, Gastrin/cholecystokinin type B receptor (Homo sapiens, UniProt P32239)
T3 sequence (P32239 whole entry): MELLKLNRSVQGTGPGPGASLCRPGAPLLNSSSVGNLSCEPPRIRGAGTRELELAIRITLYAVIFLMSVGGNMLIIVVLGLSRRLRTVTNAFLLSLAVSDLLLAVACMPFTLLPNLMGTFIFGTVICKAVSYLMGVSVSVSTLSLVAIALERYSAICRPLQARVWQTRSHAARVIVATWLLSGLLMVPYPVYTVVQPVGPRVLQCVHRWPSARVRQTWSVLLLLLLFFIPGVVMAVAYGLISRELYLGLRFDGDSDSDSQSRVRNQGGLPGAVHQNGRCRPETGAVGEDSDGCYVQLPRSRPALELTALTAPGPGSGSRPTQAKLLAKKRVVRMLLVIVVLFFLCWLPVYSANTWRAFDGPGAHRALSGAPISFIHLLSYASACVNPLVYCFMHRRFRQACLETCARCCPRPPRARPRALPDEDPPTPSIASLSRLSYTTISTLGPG

B2 bradykinin receptor = molecular target: T4, B2 bradykinin receptor (Homo sapiens, UniProt P30411)
T4 sequence (P30411 whole entry): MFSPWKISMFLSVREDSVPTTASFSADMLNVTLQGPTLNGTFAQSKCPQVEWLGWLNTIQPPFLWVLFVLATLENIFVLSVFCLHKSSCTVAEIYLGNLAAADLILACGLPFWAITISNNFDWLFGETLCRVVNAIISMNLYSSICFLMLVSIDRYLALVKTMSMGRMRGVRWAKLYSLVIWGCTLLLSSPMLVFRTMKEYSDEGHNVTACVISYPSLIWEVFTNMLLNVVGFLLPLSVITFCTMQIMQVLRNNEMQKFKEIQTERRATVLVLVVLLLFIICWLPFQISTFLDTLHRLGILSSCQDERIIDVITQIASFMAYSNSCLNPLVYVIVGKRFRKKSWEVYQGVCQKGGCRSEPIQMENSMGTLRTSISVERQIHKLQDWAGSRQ

[5] = molecular target: 5-hydroxytryptamine receptor 2B (Homo sapiens, UniProt P41595); type: functional, cell-based
Sequence of 5-hydroxytryptamine receptor 2B (P41595 whole entry): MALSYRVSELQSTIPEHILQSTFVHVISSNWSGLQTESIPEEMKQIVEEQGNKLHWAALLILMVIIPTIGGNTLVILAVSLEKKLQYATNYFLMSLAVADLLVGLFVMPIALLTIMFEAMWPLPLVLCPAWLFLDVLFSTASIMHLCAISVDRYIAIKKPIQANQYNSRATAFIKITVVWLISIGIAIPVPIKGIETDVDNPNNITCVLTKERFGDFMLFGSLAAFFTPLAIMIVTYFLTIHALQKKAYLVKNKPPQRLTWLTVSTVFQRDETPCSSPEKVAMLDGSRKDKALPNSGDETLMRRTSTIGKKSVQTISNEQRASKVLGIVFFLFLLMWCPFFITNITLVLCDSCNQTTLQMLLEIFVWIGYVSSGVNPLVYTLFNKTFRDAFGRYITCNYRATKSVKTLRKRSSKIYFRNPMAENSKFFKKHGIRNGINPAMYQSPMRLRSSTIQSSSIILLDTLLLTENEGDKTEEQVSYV

[6] = molecular target: Neuronal acetylcholine receptor subunit alpha-4 (Homo sapiens, UniProt P43681)
Sequence of Neuronal acetylcholine receptor subunit alpha-4 (P43681 whole entry): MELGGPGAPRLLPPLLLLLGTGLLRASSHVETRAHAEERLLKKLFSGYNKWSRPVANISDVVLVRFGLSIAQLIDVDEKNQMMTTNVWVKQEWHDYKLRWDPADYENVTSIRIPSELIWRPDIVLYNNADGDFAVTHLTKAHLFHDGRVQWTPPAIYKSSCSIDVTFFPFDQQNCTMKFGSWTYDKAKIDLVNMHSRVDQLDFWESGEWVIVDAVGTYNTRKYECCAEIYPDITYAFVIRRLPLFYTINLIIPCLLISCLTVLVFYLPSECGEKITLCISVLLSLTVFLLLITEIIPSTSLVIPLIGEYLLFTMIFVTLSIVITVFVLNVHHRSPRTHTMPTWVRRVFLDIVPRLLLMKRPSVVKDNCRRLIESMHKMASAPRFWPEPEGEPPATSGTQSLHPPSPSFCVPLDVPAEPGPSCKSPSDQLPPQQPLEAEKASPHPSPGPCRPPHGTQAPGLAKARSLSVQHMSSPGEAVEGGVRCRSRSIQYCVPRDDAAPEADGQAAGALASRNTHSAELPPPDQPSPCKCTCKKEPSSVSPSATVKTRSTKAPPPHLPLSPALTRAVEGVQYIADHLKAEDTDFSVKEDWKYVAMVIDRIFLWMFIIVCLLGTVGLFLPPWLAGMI

[7] = molecular target: Growth hormone secretagogue receptor type 1 (Homo sapiens, UniProt Q92847)
Sequence of Growth hormone secretagogue receptor type 1 (Q92847 whole entry): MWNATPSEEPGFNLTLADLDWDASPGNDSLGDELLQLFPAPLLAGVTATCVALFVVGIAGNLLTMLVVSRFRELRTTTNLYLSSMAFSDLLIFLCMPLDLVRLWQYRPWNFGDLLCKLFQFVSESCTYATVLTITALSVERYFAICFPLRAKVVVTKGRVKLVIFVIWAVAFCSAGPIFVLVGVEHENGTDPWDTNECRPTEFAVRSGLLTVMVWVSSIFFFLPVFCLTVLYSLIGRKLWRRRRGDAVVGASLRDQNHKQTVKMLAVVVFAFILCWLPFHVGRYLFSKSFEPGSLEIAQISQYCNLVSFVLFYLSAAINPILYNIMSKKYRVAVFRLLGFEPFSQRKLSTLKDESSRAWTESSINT

Melanocortin receptor 3 = Melanocortin receptor 3 (Homo sapiens, UniProt P41968)
Sequence of Melanocortin receptor 3 (P41968 whole entry): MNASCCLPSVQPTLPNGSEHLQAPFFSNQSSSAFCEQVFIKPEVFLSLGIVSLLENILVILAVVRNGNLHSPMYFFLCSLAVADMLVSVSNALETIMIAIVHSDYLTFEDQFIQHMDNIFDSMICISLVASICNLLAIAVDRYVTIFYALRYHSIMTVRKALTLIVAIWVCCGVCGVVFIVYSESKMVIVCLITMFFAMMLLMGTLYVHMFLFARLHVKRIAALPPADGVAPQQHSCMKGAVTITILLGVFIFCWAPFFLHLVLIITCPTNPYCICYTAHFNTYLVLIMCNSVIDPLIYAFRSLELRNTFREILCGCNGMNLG

[8] = molecular target: Delta-type opioid receptor (Homo sapiens, UniProt P41143)
Sequence of Delta-type opioid receptor (P41143 whole entry): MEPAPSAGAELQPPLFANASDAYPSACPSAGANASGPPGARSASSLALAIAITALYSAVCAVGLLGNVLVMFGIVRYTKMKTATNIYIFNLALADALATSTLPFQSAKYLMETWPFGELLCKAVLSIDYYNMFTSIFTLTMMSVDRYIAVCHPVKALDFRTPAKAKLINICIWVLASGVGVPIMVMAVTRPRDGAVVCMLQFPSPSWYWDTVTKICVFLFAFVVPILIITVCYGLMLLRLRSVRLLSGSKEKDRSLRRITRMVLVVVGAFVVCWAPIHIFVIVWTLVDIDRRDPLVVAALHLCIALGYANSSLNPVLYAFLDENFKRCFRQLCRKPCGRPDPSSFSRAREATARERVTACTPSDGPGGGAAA

[9] = molecular target: T5, Prostaglandin G/H synthase 1 (Rattus norvegicus, UniProt Q63921); type: functional
T5 sequence (Q63921 whole entry): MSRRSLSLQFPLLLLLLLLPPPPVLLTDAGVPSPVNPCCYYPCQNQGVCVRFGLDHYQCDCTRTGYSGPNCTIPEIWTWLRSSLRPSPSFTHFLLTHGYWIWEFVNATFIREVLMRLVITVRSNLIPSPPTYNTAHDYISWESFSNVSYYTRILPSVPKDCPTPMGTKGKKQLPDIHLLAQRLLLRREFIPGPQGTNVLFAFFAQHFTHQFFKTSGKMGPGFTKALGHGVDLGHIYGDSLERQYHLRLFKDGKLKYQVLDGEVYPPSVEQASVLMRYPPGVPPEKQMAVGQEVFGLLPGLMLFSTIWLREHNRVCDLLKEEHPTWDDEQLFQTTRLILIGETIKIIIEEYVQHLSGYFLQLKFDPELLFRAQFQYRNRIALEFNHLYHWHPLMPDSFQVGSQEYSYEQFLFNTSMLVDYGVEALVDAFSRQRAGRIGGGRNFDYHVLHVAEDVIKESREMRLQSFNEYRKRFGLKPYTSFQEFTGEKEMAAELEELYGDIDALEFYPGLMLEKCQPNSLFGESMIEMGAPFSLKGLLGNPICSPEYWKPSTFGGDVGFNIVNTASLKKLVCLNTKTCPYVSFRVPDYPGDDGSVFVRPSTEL

[10] = molecular target: Voltage-dependent L-type calcium channel subunit alpha-1C (Rattus norvegicus, UniProt P22002); type: functional
Also: assay procedure not described here.

Sequence of 3',5'-cyclic-AMP phosphodiesterase 4D (Q08499 whole entry): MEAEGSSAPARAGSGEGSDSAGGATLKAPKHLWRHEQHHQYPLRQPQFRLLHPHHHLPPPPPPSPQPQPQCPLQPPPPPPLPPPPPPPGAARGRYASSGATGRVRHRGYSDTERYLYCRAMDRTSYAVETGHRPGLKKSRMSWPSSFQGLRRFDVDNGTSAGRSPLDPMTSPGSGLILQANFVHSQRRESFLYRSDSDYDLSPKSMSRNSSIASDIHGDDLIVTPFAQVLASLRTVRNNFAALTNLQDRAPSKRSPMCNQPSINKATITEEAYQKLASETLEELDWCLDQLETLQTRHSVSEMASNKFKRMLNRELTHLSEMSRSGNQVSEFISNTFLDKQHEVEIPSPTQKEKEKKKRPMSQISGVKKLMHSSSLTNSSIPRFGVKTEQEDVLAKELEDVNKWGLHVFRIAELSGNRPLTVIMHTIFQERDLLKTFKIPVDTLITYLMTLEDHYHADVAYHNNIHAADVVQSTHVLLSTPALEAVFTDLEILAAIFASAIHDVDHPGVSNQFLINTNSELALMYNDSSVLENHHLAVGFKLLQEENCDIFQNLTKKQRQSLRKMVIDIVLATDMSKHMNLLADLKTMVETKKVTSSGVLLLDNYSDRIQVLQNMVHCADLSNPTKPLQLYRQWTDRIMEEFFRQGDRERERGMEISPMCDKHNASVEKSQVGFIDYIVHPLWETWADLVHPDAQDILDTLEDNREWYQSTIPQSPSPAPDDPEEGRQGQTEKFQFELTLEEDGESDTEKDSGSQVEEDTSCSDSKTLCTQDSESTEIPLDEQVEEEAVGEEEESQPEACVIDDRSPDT

SMILES | AC50 [1] [µM] | AC50 [2] [µM] | AC50 [3] [µM] | AC50 (D(1A) dopamine receptor) [µM] | AC50 [4] [µM] | AC50 (B2 bradykinin receptor) [µM] | AC50 [5] [µM] | AC50 [6] [µM] | AC50 [7] [µM] | AC50 (Melanocortin receptor 3) [µM] | AC50 [8] [µM] | AC50 [9] [µM] | AC50 [10] [µM]
C[N+]12CCC(CC1)C(OC(=O)C(O)(c1ccccc1)c1ccccc1)C2 (stereo not drawn) | > 30 | > 30 | > 30 | > 30 | > 30 | > 30 | > 30 | > 30 | > 30 | > 30 | > 30 | > 30 | –
CO/N=C(\C(=O)N[C@@H]1C(=O)N2C(C(=O)O)=CCS[C@H]12)c1csc(N)n1 [CEFTIZOXIME] | > 30 | > 30 | > 30 | > 30 | > 30 | > 10 | > 30 | > 30 | > 30 | > 30 | – | > 30 | –
CO/N=C(\C(=O)N[C@@H]1C(=O)N2C(C(=O)O)=C(CSc3nc(=O)c(=O)[nH]n3C)CS[C@H]12)c1csc(N)n1 [CEFTRIAXONE] | > 30 | > 30 | > 30 | > 30 | > 30 | > 30 | > 30 | > 30 | > 30 | > 30 | > 30 | > 30 | –
COc1cc(N)c(Cl)cc1C(=O)NC1CCN(CCCOc2ccc(F)cc2)CC1OC (stereo not drawn) [CISAPRIDE] | > 30 | – | – | > 10 | > 30 | > 30 | – | > 10 | > 30 | > 30 | > 10 | > 30 | > 10
CC(C)NC[C@H](O)COc1ccc(CC(N)=O)cc1 [ESATENOLOL] | > 10 | > 10 | > 10 | – | > 30 | > 30 | – | – | > 30 | > 30 | > 10 | > 30 | –
O=C(NCCO[N+](=O)[O-])c1cccnc1 [NICORANDIL] | > 30 | > 30 | > 30 | > 30 | > 30 | > 30 | > 30 | > 30 | > 30 | > 30 | > 30 | > 30 | –
O=c1[nH]c2ccccc2n1CCCN1CCN(C(c2ccccc2)c2ccccc2)CC1 [OXATOMIDE] | > 30 | > 30 | 0.89 | > 30 | > 30 | > 30 | – | > 30 | 8.8 | > 30 | > 30 | > 30 | –
C[C@]12C/C(=C/O)C(=O)C[C@@H]1CC[C@@H]1[C@@H]2CC[C@@]2(C)[C@H]1CC[C@]2(C)O [OXYMETHOLONE] | > 30 | > 30 | > 30 | > 30 | > 30 | > 30 | > 30 | > 30 | > 30 | > 30 | > 30 | 19 | –
COc1cc2[nH]c(C)c(CCN3CCN(c4ccccc4)CC3)c2cc1OC [OXYPERTINE] | 9.8 | > 30 | 1.4 | > 30 | > 30 | > 30 | 0.12 | 27 | > 30 | > 30 | > 30 | > 30 | –
c1ccc(C2(N3CCCCC3)CCCCC2)cc1 [PHENCYCLIDINE] | > 30 | > 30 | > 30 | > 30 | > 30 | > 30 | > 30 | > 30 | > 30 | > 30 | > 30 | > 30 | –
COc1cc(C(=O)OCc2cccc(COC(=O)c3cc(OC)c(OC)c(OC)c3)n2)cc(OC)c1OC [PIROZADIL] | > 30 | > 30 | > 30 | > 30 | > 30 | > 30 | > 30 | > 30 | > 30 | > 30 | > 30 | > 30 | –
Cc1cc(C)nc(NS(=O)(=O)c2ccc(N)cc2)n1 [SULFAMETHAZINE] | > 30 | > 10 | > 30 | > 30 | – | > 10 | > 10 | > 10 | > 10 | > 10 | > 30 | > 10 | > 10
CCN1CCCC1CNC(=O)c1cc(S(=O)(=O)CC)ccc1OC (stereo not drawn) [SULTOPRIDE] | > 30 | > 30 | 4.5 | > 30 | > 30 | > 30 | 1.3 | > 30 | > 30 | > 30 | > 30 | > 30 | –
CCOC(=O)[C@@H](N)Cc1ccc(-c2cc(O[C@H](c3ccc(Cl)cc3-n3ccc(C)n3)C(F)(F)F)nc(N)n2)cc1 [TELOTRISTAT ETHYL] | 5 | > 30 | 22 | > 30 | > 30 | > 30 | > 30 | > 30 | 28 | 12 | > 30 | > 30 | –
CC(c1cc2ccccc2s1)N(O)C(N)=O (stereo not drawn) [ZILEUTON] | > 30 | > 10 | > 10 | > 10 | – | > 10 | > 10 | > 10 | > 10 | > 10 | > 30 | > 30 | > 10
